Values quoted from earlier work as cited in patent US6902746B2, “Oral pharmaceutical compositions containing non-steroidal anti-inflammatory drugs and method for preparing the same” (Yung Shin Pharmaceutical Industrial Co., Ltd., priority 2002, dated 2005).
Each block holds one compound with its values, some of them ahead of it.

Legend:
[1] = system: M.K. and δ opioid receptors
[2] = in vivo
[3] = animal studies; fraction of the effect of ketorolac tromethamine
platelet aggregation = details: in vitro; fraction of the activity of ketorolac tromethamine
[4] = animal studies; fraction of the effect of ketorolac tromethamine; remark: listed apart in the source

binding to opioid receptors [1]: does not bind
Compound: O=C(c1ccccc1)c1ccc2n1CCC2C(=O)O (stereo not shown) [ketorolac]

plasma half-lives ([2]; human): markedly prolonged
total clearance ([2]; human): decreased
administered drug eliminated in the urine [2]: about 75%
administered drug, in its original form, found in the feces [2]: About 6%
bound to plasma proteins [2]: about 99%
mean elimination half-live [2]: 5.3 h
mean volume of distribution at steady state [2]: 0.11 L/kg
mean volume of distribution during the elimination phase [2]: 0.17 to 0.25 L/kg
absorption in the presence of antacids ([2]; po): not affected
Compound: (±)-5-benzoyl-2,3-dihydro-1H-pyrrolizine-1-carboxylic acid 2-amino-2-(hydroxymethyl)-1,3-propanediol [Ketorolac tromethamine]

Compound: O=C(c1ccc(O)cc1)c1ccc2n1CCC2C(=O)O (stereo not shown) [p-hydroxyketorolac]
analgesic effect relative to ketorolac tromethamine [3]: 1/100
anti-platelet aggregation activity relative to ketorolac tromethamine (platelet aggregation): 1/25
anti-inflammatory effect relative to ketorolac tromethamine [4]: less than ⅕
